We go through two molecules from patent US9446018B2, “Pharmaceutical composition for treating or preventing angina or myocardial infarction induced by myocardial ischemia” (SINPHAR TIAN-LI PHARMACEUTICAL CO., LTD. (HANGZHOU), priority 2009, dated 2016).

The assay concerns myocardial cells (death induced from partial myocardial ischemia). Kind of assay: Embodiment 1: myocardial infarct size after 1 h ligature of the left descending coronary branch and 1 h reperfusion (TTC staining). Format: in vivo, Crl:CD(SD) SPF rats.

As to `CC(=O)Oc1ccccc1C(=O)O` [Aspirin], the “effect on myocardial infarct size compared with the blank control group (in words)” value (Embodiment 1, Table 1, STA-2 alone in high dose or in low dose) was “did not produce any statistically meaningful effects”. For the same molecule, the “Myocardial Infarction Percentage (%)” value (rat, tube-fed once daily 7 days + IP 1/3 dose after ligation, isosorbide dinitrate 18.75 mg/Kg, STA-2 low dose 250 mg/Kg, Aspirin 8.3 mg/Kg, mean ± SEM) is 14.75 ± 2.8%.

Take `O=[N+]([O-])O[C@H]1CO[C@H]2[C@@H]1OC[C@H]2O[N+](=O)[O-]` [isosorbide dinitrate]: the “effect on myocardial infarct size compared with the blank control group (in words)” value (rat, in vivo) is on record as “significant reduction in myocardial infarct size”.
